Experimental data from patent US11535627B2, “Pyrimidine derivative compound, pharmaceutically acceptable salt thereof, preparation process thereof, and pharmaceutical composition using the same” (Spark Biopharma, Inc., priority 2016, dated 2022).
Each block holds one compound with its values, some of them ahead of it.

Tests used:
LRS-RagD interaction = LRS-RagD interaction (Homo sapiens, UniProt Q9P2J5); assay: ELISA of LRS-RagD interaction; format: binding
Description: His-tagged human LRS proteins were diluted in carbonate buffer (100 mM, pH 9.6) to the concentration of 0.5 ng μl^−1. […] Protein from each well was removed and washed three times with PBS mixed with 0.05% Tweed® 20 (PBST), subjected to blocking with PBS containing 5% bovine serum albumin (BSA) for 2 hours. Each well was washed with PBST, followed by the treatment of a compound and GST-tagged human RagD protein simultaneously for 3 hours. GST protein itself was used as a negative control. Each well was treated with GST antibody diluted in PBST and incubated at room temperature for 1 h. After washing with PBST, the HRP-conjugated anti-horse IgG secondary antibody was incubated at room temperature for 1 h. TMB was added to each well for colorimetric development. […] To stop the chemical reaction, the treatment with 1 m H3PO4 was done. Finally, absorbance at 450 nm were measured.

mTORC1 = assay: Western blotting, mTORC1 signalling pathway in HEK293T cells; format: cell-based; details: HEK293T cells
Description: HEK293T cell was cultured in Dulbecco modified eagle medium (DMEM) with 10% (v/v) fetal bovine serum (FBS) and 1% (v/v) antibiotic-antimycotic solution. […] The cells were cultured in 100-mm culture dish in an incubator at 37° C., in 5% CO2.
Cells were lysed with Radio-ImmunoPrecipitation Assay (RIPA) buffer (50 mM Tris, pH 7.8, 150 mM NaCl, 0.5% deoxycholate, 1% IGEPAL CA-630, protease inhibitor cocktail, and phosphatase inhibitors). Protein was obtained by transferring supernatant after centrifugation at 15000 rpm for 20 min. Protein concentration was measured with Micro BCA™ protein assay kit. Overall protein sampling procedure was done at 4° C. Prepared protein samples were analyzed with SDS-PAGE. Protein after electrophoresis was transferred into nitrocellulose membrane. Membrane was blocked with TBST mixed with 2% BSA over at least 1 h at r.t. Primary antibodies were incubated overnight at 4° C. […] After washing with TBST, HRP-labeled anti-rabbit IgG secondary antibody was treated at room temperature for 1 h. After washing with TBST, developing by Amersham ECL prime solution was done. Chemiluminescent signal was imaged by ChemiDoc™ MP imaging system.

[1] = test system: HeLa human cervical cancer cells; assay: Western blot analysis of LC3 and p62 (autophagy) in HeLa cells; format: cell-based; details: 6 h, 200 nM Rap, 10 nM Baf, 20 μM 21f, compared with DMSO
Description: HEK293T cell was cultured in Dulbecco modified eagle medium (DMEM) with 10% (v/v) fetal bovine serum (FBS) and 1% (v/v) antibiotic-antimycotic solution. HeLa, DU145, and Ca Ski cells were cultured in RPMI 1640 medium with 10% (v/v) FBS and 1% (v/v) antibiotic-antimycotic solution. The cells were cultured in 100-mm culture dish in an incubator at 37° C., in 5% CO2.
Cells were lysed with Radio-ImmunoPrecipitation Assay (RIPA) buffer (50 mM Tris, pH 7.8, 150 mM NaCl, 0.5% deoxycholate, 1% IGEPAL CA-630, protease inhibitor cocktail, and phosphatase inhibitors). Protein was obtained by transferring supernatant after centrifugation at 15000 rpm for 20 min. Protein concentration was measured with Micro BCA™ protein assay kit. Overall protein sampling procedure was done at 4° C. Prepared protein samples were analyzed with SDS-PAGE. Protein after electrophoresis was transferred into nitrocellulose membrane. Membrane was blocked with TBST mixed with 2% BSA over at least 1 h at r.t. Primary antibodies were incubated overnight at 4° C. The treatment concentration was as follows: Anti-LC3B (ab51520); 1:1000, anti-S6K1 (ab32359); 1:1000, anti-phospho-T389 S6K1 (ab2571); 1:800, anti-p62 (CST 5114); 1:1000, anti-glyceraldehyde-3-phosphate dehydrogenase (GAPDH) (CST 2118); 1:1000, anti-phospho-S65 4E-BP1 (CST 9451); 1:1000, anti-phospho-S757 ULK1 (CST 6888); 1:800, anti-phospho-S473 Akt (CST 4058); 1:1000, anti-phospho-T172 AMPKα (CST 2531). After washing with TBST, HRP-labeled anti-rabbit IgG secondary antibody was treated at room temperature for 1 h. After washing with TBST, developing by Amersham ECL prime solution was done. Chemiluminescent signal was imaged by ChemiDoc™ MP imaging system.

HeLa cells = assay: mCherry-GFP-LC3 puncta imaging; format: cell-based, human; details: 6 h, 200 nM Rap, 10 nM Baf, 20 μM 21f
Description: HeLa cells were seeded in chambered coverglass from Nunc and incubated for 24 h. mCherry-GFP-LC3 plasmid was transfected to the cells using Lipofectamine™ 2000 solution. Transfection was proceeded according to manufacturer's protocol.
DeltaVision Elite imaging system was used for the imaging of mCherry-GFP-LC3 transfected HeLa cell. For live-cell imaging, chamber was maintained at 37° C. and in 5% CO2. […] The wavelength range of the used filters is as follows: mCherry (Excitation: 575/25 nm, Emission: 625/45 nm); GFP (Excitation: 475/28 nm, Emission: 525/48 nm). Images were processed and analyzed with SoftWorks deconvolution software.

LRS-RagD interaction, sequence (Q9P2J5 whole entry): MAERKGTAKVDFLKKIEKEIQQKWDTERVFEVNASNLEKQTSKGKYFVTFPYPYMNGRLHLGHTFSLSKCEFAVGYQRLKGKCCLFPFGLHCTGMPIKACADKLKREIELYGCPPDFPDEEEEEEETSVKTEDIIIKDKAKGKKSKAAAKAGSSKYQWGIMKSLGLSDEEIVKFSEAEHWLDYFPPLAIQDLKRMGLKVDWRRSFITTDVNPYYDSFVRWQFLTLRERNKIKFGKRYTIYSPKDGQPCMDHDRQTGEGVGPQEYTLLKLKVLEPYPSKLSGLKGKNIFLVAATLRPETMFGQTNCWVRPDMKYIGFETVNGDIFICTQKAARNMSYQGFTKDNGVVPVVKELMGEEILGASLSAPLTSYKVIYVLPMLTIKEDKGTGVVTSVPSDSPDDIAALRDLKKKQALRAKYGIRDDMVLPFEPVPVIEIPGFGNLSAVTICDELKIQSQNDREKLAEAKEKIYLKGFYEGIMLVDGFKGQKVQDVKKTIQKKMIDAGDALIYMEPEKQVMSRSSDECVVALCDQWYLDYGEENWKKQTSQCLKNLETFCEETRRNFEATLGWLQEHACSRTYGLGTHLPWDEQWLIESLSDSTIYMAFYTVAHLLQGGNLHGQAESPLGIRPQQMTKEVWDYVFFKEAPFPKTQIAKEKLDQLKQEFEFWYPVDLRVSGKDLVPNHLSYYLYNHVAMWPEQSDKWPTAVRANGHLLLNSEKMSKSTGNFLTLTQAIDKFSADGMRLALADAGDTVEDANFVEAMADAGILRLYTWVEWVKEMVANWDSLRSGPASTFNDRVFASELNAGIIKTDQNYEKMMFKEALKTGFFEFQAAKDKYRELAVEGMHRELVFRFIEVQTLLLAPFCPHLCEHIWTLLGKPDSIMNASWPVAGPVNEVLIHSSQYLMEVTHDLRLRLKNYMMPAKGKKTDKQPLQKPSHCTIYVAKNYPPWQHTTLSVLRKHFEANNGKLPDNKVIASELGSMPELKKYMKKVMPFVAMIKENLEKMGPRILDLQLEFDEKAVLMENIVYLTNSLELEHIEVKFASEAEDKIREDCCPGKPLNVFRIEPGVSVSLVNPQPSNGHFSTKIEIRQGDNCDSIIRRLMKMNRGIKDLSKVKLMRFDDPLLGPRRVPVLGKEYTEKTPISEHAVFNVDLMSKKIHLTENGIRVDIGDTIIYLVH

SMILES: CN(Cc1ccccc1)c1ncnc2c1CN(C(=O)OC(C)(C)C)[C@@H]1C=CCN2C1 [Compound 23f]
dose-dependent inhibition of the LRS-RagD interaction (dose-response curves in ELISA) (LRS-RagD interaction): did not inhibit the LRS-RagD interaction in a dose-dependent manner

SMILES: CN(Cc1ccccc1)c1ncnc2c1CN1C[C@@H]1CN2Cc1ccccc1 (stereo partly shown) [Compound 20f]
amount of phospho-T389 S6K1 (mTORC1; 20 μM, 3 h): less than that of 21f | phosphorylation suppression of S6K1 by western blotting (mTORC1; 20 μM, 3 h, phospho-T389 S6K1 relative to DMSO): 16.4% | dose-dependent inhibition of the LRS-RagD interaction (dose-response curves in ELISA) (LRS-RagD interaction): inhibit the LRS-RagD interaction in a dose-dependent manner | reduction of LRS-RagD interaction by ELISA (LRS-RagD interaction): 15.5%

melting point: 196 to 198 °C
SMILES: CN(Cc1ccccc1)c1ncnc2c1CN1[C@@H](CN2)COCS1(=O)=O [Compound 18f]
dose-dependent inhibition of the LRS-RagD interaction (dose-response curves in ELISA) (LRS-RagD interaction): did not inhibit the LRS-RagD interaction in a dose-dependent manner

SMILES: CO/C1=C\C(C)=C\[C@@H](C)[C@@H](O)[C@@H](C)C/C(C)=C/C=C/[C@H](OC)[C@@H]([C@@H](C)[C@@H](O)[C@H](C)[C@@]2(O)C[C@@H](O)[C@H](C)[C@@H](C(C)C)O2)OC1=O [bafilomycin, reference compound]
LC3 I/LC3 II ratio [1]: increased ratio of LC3 I/LC3 II | p62 level [1]: accumulation of p62 | mCherry and GFP fluorescence (mCherry-GFP-LC3) (HeLa cells): yellow color

SMILES: CO[C@H]1C[C@@H]2CC[C@@H](C)[C@@](O)(O2)C(=O)C(=O)N2CCCC[C@H]2C(=O)O[C@H]([C@H](C)C[C@@H]2CC[C@@H](O)[C@H](OC)C2)CC(=O)[C@H](C)/C=C(\C)[C@@H](O)[C@@H](OC)C(=O)[C@H](C)C[C@H](C)/C=C/C=C/C=C/1C [rapamycin, reference compound]
duration of the effect on mTORC1 within cells (mTORC1; 500 nM, 0 to 24 hours): at least 12 hours

melting point: 89 to 91 °C
SMILES: C=CCN1C[C@H]2COC(=O)N2Cc2c(N(C)Cc3ccccc3)ncnc21 [Compound 22f]
dose-dependent inhibition of the LRS-RagD interaction (dose-response curves in ELISA) (LRS-RagD interaction): did not inhibit the LRS-RagD interaction in a dose-dependent manner
